The values below come from US4443605A, “7β-Arylalkyl-6α, 7 α-oxymethylene-3-methoxy or 3-hydroxy-4, 5α-epoxy-17 methyl or 17-cycloalkyl-methyl morphinans” (Miles Laboratories, Inc., priority 1982, dated 1984).

The assay concerns mice. Description: Acetic Acid Induced Mouse Writhing Test. The format is in vivo, mouse (male CD-1). To be noted: for ED50: sc. Here is the method:
Analgesic effects of the test compounds were determined in mice by use of the acetic acid induced writhing test described by B. A. Whittle, Brit. J. Pharmacol., 22:246 (1964). In this test, at least 3 groups of 5 male CD-1 mice each were given subcutaneous doses of the test drug dissolved in distilled water. In all cases, 0.4 mL of a 0.5% v/v acetic acid in distilled water solution was administered intraperitoneally 15 min. post drug. The number of writhes in a 20 min. interval beginning 5 min. after the acetic acid injection were determined and compared with the number of writhes in a control group which had received only acetic acid.
Percent inhibition of writhing was calculated as: [formula]
The ED50 dose, i.e., the dose required to reduce the number of writhes by 50%, was determined graphically from a plot of % inhibition as a probit verus log dose. […] See Lichtfield, J. T. and Wilcoxon, F., J. Pharmacol. Exp. Ther., 96, 99-113 (1949).
The results of this testing, both in terms of μ mole/kg and mg/kg of the compound tested, are set out in table I.

[1] abbreviates: 0.25 h, Analgesic Activity In Mouse Writhing Assay - Subcutaneous Inj., acetic acid i.p. 15 min post drug, * = d-tartrate salt, read-out: ED50 (mg/kg).
Setting [2] is: 0.25 h, Analgesic Activity In Mouse Writhing Assay - Subcutaneous Inj., acetic acid i.p. 15 min post drug, * = d-tartrate salt, read-out: ED50 (μmole/kg).

Read-outs that look alike come from different tables or passages of the source.

Turning to `COc1ccc2c3c1O[C@H]1[C@H]4OC[C@@]4(CCCc4ccccc4)C[C@H]4[C@@H](C2)N(CC2CC2)CC[C@@]341` [Compound 23Pd], the ED50 reads like this: under setting [1], 0.67 mg/kg; under setting [2], 1.07 µmol/kg.

With `Oc1ccc2c3c1O[C@H]1[C@H]4OC[C@@]4(CCc4ccccc4)C[C@H]4[C@@H](C2)N(CC2CC2)CC[C@@]341` [Compound 24Pc], the ED50 under setting [1] was 0.018 mg/kg and the ED50 under setting [2] is 0.04 µmol/kg.

For `Oc1ccc2c3c1O[C@H]1[C@H]4OC[C@@]4(CCCc4ccccc4)C[C@H]4[C@@H](C2)N(CC2CC2)CC[C@@]341` [Compound 24Pd], the ED50 came to 0.0015 mg/kg under setting [1] and 0.003 µmol/kg under setting [2].

As for `COc1ccc2c3c1O[C@H]1[C@H]4OC[C@@]4(CCc4ccccc4)C[C@H]4[C@@H](C2)N(C)CC[C@@]341` [Compound 17c], the ED50 under setting [1] came out at 0.5 mg/kg and the ED50 under setting [2] was determined as 0.9 µmol/kg.

In the case of `COc1ccc2c3c1O[C@H]1[C@H]4OC[C@@]4(CCCCc4ccccc4)C[C@H]4[C@@H](C2)N(C)CC[C@@]341` [Compound 17e], the ED50 (Mus musculus, acetic acid induced writhing assay, contrasted with compound 8, read-out: ED50 in the same assay) turned out to be 0.003 mg/kg; the ED50 under setting [1] stood at 0.0028 mg/kg; the ED50 under setting [2] was determined as 0.005 µmol/kg.

Turning to `COc1ccc2c3c1O[C@H]1[C@H]4OC[C@@]4(CCc4ccccc4)C[C@H]4[C@@H](C2)N(CC2CC2)CC[C@@]341` [Compound 23Pc], the ED50 under setting [1] came out at 0.26 mg/kg and the ED50 under setting [2] came out at 0.57 µmol/kg.

`CN1CC[C@]23c4c5ccc(O)c4O[C@H]2[C@H]2OC[C@@]2(CCCCCc2ccccc2)C[C@H]3[C@H]1C5` [Compound 20f]: the ED50 by setting is: under setting [1], 0.017 mg/kg; under setting [2], 0.028 µmol/kg.

In the case of `Oc1ccc2c3c1O[C@H]1[C@H]4OC[C@@]4(CCc4ccccc4)C[C@H]4[C@@H](C2)N(CC2CCC2)CC[C@@]341` [Compound 24Bc], the ED50 runs as follows: under setting [1], 0.177 mg/kg; under setting [2], 0.39 µmol/kg.

Regarding `COc1ccc2c3c1O[C@H]1[C@H]4OC[C@@]4(CCCCCc4ccccc4)C[C@H]4[C@@H](C2)N(C)CC[C@@]341` [Compound 17f], the ED50 was 0.82 mg/kg under setting [1] and 1.3 µmol/kg under setting [2].

Consider `COc1ccc2c3c1O[C@H]1[C@H]4OC[C@@]4(CCc4ccccc4)C[C@H]4[C@@H](C2)N(CC2CCC2)CC[C@@]341` [Compound 23Bc], for which the ED50 by setting is: under setting [1], more than 10 mg/kg; under setting [2], more than 16 µmol/kg.

Consider `COc1ccc2c3c1O[C@H]1[C@H]4OC[C@@]4(CCCc4ccccc4)C[C@H]4[C@@H](C2)N(CC2CCC2)CC[C@@]341` [Compound 23Bd], for which the ED50 was determined as 2.8 mg/kg under setting [1] and 4.4 µmol/kg under setting [2].

As for `CN1CC[C@]23c4c5ccc(O)c4O[C@H]2[C@H]2OC[C@@]2(CCCCc2ccccc2)C[C@H]3[C@H]1C5` [Compound 20e], the ED50 under setting [1] is 0.014 mg/kg and the ED50 under setting [2] is 0.024 µmol/kg.

As for `COc1ccc2c3c1O[C@H]1[C@H]4OC[C@@]4(CCCc4ccccc4)C[C@H]4[C@@H](C2)N(C)CC[C@@]341` [Compound 17d], the ED50 was 0.027 mg/kg under setting [1] and 0.046 µmol/kg under setting [2].

Regarding `CN1CC[C@]23c4c5ccc(O)c4O[C@H]2[C@H]2OC[C@@]2(CCc2ccccc2)C[C@H]3[C@H]1C5` [Compound 20c], the ED50 is, setting by setting: under setting [1], 0.024 mg/kg; under setting [2], 0.048 µmol/kg.

As to `Oc1ccc2c3c1O[C@H]1[C@H]4OC[C@@]4(CCCCc4ccccc4)C[C@H]4[C@@H](C2)N(CC2CCC2)CC[C@@]341` [Compound 24Be], the ED50 was determined as 0.22 mg/kg under setting [1] and 0.05 µmol/kg under setting [2].

For the compound `COc1ccc2c3c1O[C@H]1[C@H]4OC[C@@]4(CCCCc4ccccc4)C[C@H]4[C@@H](C2)N(CC2CCC2)CC[C@@]341` [Compound 23Be], the ED50 reads like this: under setting [1], 1.8 mg/kg; under setting [2], 2.8 µmol/kg.

Regarding `CN1CC[C@]23c4c5ccc(O)c4O[C@H]2[C@H]2OC[C@@]2(CCCc2ccccc2)C[C@H]3[C@H]1C5` [Compound 20d], the ED50 reads like this: under setting [1], 0.011 mg/kg; under setting [2], 0.019 µmol/kg.

Turning to `Oc1ccc2c3c1O[C@H]1[C@H]4OC[C@@]4(CCCc4ccccc4)C[C@H]4[C@@H](C2)N(CC2CCC2)CC[C@@]341` [Compound 24Bd], the ED50 stood at 0.0375 mg/kg under setting [1] and 0.06 µmol/kg under setting [2].

Regarding `COc1ccc2c3c1O[C@H]1[C@H]4OC[C@@]4(CCCCc4ccccc4)C[C@H]4[C@@H](C2)N(CC2CC2)CC[C@@]341` [Compound 23Pe], the ED50 is, setting by setting: under setting [1], 0.39 mg/kg; under setting [2], 0.61 µmol/kg.

`COc1ccc2c3c1O[C@H]1[C@@H]4OC[C@]4(CCCCc4ccccc4)C[C@H]4[C@@H](C2)N(C)CC[C@@]341` [Compound 8, 4,5α-Epoxy-3-methoxy-17-methyl-7α-(4-phenylbutyl)-6β,7β-(oxymethylene)-morphinan]: under “at 10 mg/kg”, the “activity in the acetic acid induced writhing assay” value was “inactive”.

With `Oc1ccc2c3c1O[C@H]1[C@H]4OC[C@@]4(CCCCc4ccccc4)C[C@H]4[C@@H](C2)N(CC2CC2)CC[C@@]341` [Compound 24Pe], the ED50 is, setting by setting: under setting [1], 0.01 mg/kg; under setting [2], 0.015 µmol/kg.
